Positions count from the first letter of the chain named.
Tests used:
[1] = target: T1, HsaCCA (human CCA-adding enzyme, tRNA nucleotidyltransferase) (Homo sapiens, UniProt Q96Q11, E193G); assay: DRaCALA (nitrocellulose radioligand spot assay); type: binding; settings: 4 °C, 10 min, HEPES/KOH pH 7.6, 30 mM KCl, 6 mM MgCl2, no tRNA; 1 nM labelled compound (α-32P)
T1 construct: gene TRNT1; N-terminal His-tag, pET28a(+), expressed in E. coli BL21(DE3) delta-cca
T1 sequence (Q96Q11 30-434 E193G): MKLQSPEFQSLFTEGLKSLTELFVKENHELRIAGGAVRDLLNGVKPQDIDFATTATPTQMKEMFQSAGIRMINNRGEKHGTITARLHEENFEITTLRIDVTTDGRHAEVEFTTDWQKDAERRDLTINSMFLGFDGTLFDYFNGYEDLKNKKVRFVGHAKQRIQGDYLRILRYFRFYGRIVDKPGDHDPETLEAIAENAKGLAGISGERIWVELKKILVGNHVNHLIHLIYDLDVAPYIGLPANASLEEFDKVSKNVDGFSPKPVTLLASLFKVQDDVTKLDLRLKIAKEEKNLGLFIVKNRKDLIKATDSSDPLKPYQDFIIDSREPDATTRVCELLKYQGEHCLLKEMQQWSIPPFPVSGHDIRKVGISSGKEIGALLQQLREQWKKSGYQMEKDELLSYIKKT

[2] = target: T2, HsaCCA (human CCA-adding enzyme, tRNA nucleotidyltransferase) (Homo sapiens, UniProt Q96Q11); assay: DRaCALA (nitrocellulose radioligand spot assay); type: binding; settings: 4 °C, 10 min, HEPES/KOH pH 7.6, 30 mM KCl, 6 mM MgCl2, no tRNA; 1 nM labelled compound (α-32P)
T2 construct: gene TRNT1; N-terminal His-tag, pET28a(+), expressed in E. coli BL21(DE3) delta-cca
T2 sequence (Q96Q11 30-434): T1 sequence (Q96Q11 30-434 E193G) with G164E

[3] = target: T2, HsaCCA (human CCA-adding enzyme, tRNA nucleotidyltransferase); assay: in vitro nucleotide incorporation on […]-labelled yeast tRNA-Phe-CC; type: biochemical; settings: 1 mM ATP, A-addition, co-substrate tRNA-Phe-CC, 37 °C; no binding to apoenzyme detected by DRaCALA

SMILES | DRaCALA (nitrocellulose radioligand spot assay) [1] | DRaCALA (nitrocellulose radioligand spot assay) [2] | in vitro nucleotide incorporation on 32P-labelled yeast tRNA-Phe-CC [3]
Nc1ccn([C@@H]2O[C@H](COP(=O)(O)OP(=O)(O)OP(=O)(O)O)[C@@H](O)[C@H]2O)c(=O)n1 [CTP] | CTP binding of HsaCCA E164G seems to be less efficient compared to the wt enzyme | Both HsaCCA wt and HsaCCA E164G showed robust interaction with CTP | 
Nc1ncnc2c1ncn2[C@@H]1O[C@H](COP(=O)(O)OP(=O)(O)OP(=O)(O)O)[C@@H](O)[C@H]1O [ATP] |  |  | Both enzyme versions readily add the terminal A if NTPs (N) or only ATP

— publication PMC11784652, “Two complementing in vivo selection systems based on CCA-trimming exonucleases as a tool to monitor, select and evaluate enzymatic features of tRNA nucleotidyltransferases” (RNA Biology, 2025)
